According to the supplement of paper PMC13380429:

Legend:
Details in all cases: 72 h
[1] = system: Caco-2; assay: cell viability relative to DMSO; higher = less toxic
[2] = system: Calu-3; assay: as above
[3] = system: HepG2; assay: as above
[4] = system: U2OS; assay: as above
[5] = system: Vero E6; assay: as above
[6] = system: Caco-2; assay: relative viability EC50 (midpoint between 100% and the lowest measured viability); higher = less toxic
[7] = system: Calu-3; assay: as above
[8] = system: HepG2; assay: as above
[9] = system: U2OS; assay: as above
[10] = system: Vero E6; assay: as above
[11] = system: Caco-2; assay: drug sensitivity score (DSS) for viability; higher = more toxic; extreme values may be limits of the assay
[12] = system: Calu-3; assay: as above
[13] = system: HepG2; assay: as above
[14] = system: U2OS; assay: as above
[15] = system: Vero E6; assay: as above

Row | Compound | cell viability ([1]; 1 nM) [%] | cell viability ([1]; 10 nM) [%] | cell viability ([1]; 100 nM) [%] | cell viability ([1]; 1000 nM) [%] | cell viability ([1]; 10000 nM) [%] | cell viability ([2]; 1 nM) [%] | cell viability ([2]; 10 nM) [%] | cell viability ([2]; 100 nM) [%] | cell viability ([2]; 1000 nM) [%] | cell viability ([2]; 10000 nM) [%] | cell viability ([3]; 1 nM) [%] | cell viability ([3]; 10 nM) [%] | cell viability ([3]; 100 nM) [%] | cell viability ([3]; 1000 nM) [%] | cell viability ([3]; 10000 nM) [%] | cell viability ([4]; 1 nM) [%] | cell viability ([4]; 10 nM) [%] | cell viability ([4]; 100 nM) [%] | cell viability ([4]; 1000 nM) [%] | cell viability ([4]; 10000 nM) [%] | cell viability ([5]; 1 nM) [%] | cell viability ([5]; 10 nM) [%] | cell viability ([5]; 100 nM) [%] | cell viability ([5]; 1000 nM) [%] | cell viability ([5]; 10000 nM) [%] | relative viability EC50 [6] [µM] | relative viability EC50 [7] [µM] | relative viability EC50 [8] [µM] | relative viability EC50 [9] [µM] | relative viability EC50 [10] [µM] | drug sensitivity score [11] | drug sensitivity score [12] | drug sensitivity score [13] | drug sensitivity score [14] | drug sensitivity score [15]
1 | Cc1nc2cnc3ccc(C#Cc4cccnc4)cc3c2n1-c1ccc(C(C)(C)C#N)cc1 [BAG-956] | 97.8 | 101 | 79.7 | 33.5 | 33.3 | 92.7 | 96.2 | 79 | 27.7 | 30.2 | 104 | 103 | 93.3 | 62.3 | 41.4 | 97.4 | 101 | 88.8 | 24.9 | 23.8 | 104 | 103 | 97.5 | 42.6 | 35.3 | 0.139 | 0.144 | 0.604 | 0.202 | 0.41 | 15.3 | 16.3 | 7.9 | 15.8 | 10.8
2 | CC(C)n1c(=O)n(C(=O)N[C@H]2C[C@H]3CC[C@@H](C2)N3C)c2ccccc21 [BIMU-8] | 99 | 105 | 98.1 | 102 | 96.9 | 96.4 | 105 | 96.3 | 92.3 | 93.9 | 93.2 | 95.2 | 90.5 | 93.2 | 97 | 102 | 103 | 99.1 | 101 | 99.1 | 105 | 99.6 | 99.6 | 98.9 | 94.7 | > 10 | > 10 | > 10 | > 10 | > 10 | 0 | 0 | 0 | 0 | 0
3 | CN1C(=O)N(c2cc(Cl)cc(Cl)c2)C(=O)[C@@]1(C)Cc1ccc(Br)cc1 [BIRT-377] | 101 | 98 | 97.9 | 102 | 83.4 | 98.4 | 92.8 | 91.1 | 105 | 92.7 | 105 | 101 | 104 | 86.6 | 103 | 98.1 | 100 | 95.2 | 99.2 | 88.8 | 98.7 | 96.8 | 104 | 95.3 | 101 | > 10 | > 10 | > 10 | > 10 | > 10 | 0.3 | 0 | 0 | 0 | 0
4 | CC(C)(C)c1ccc2cc(C#N)c(C#N)cc2c1 [BRD9876] | 99 | 98.6 | 102 | 96 | 89 | 103 | 100 | 90.2 | 95.8 | 85.9 | 97.7 | 98.8 | 90.7 | 89.9 | 97.6 | 101 | 106 | 95.6 | 99.8 | 94.9 | 98.5 | 104 | 99.2 | 99.4 | 97.8 | > 10 | > 10 | > 10 | > 10 | > 10 | 0.1 | 0.2 | 0 | 0 | 0
